Data from ChEMBL document CHEMBL1828558, “Discovery of (+)-N-(3-aminopropyl)-N-[1-(5-benzyl-3-methyl-4-oxo-[1,2]thiazolo[5,4-d]pyrimidin-6-yl)-2-methylpropyl]-4-methylbenzamide (AZD4877), a kinesin spindle protein inhibitor and potential anticancer agent” (J Med Chem, 2011).

Tests used:
[1] = system: Liver microsomes; assay: Intrinsic clearance in Wistar rat liver microsomes at 2 uM; type: ADME, Microsome
[2] = Plasma protein binding in Wistar rat; type: ADME, cell-free; conditions: read-out: PPB (converted)
[3] = Clearance in Wistar rat; type: ADME, organism-based; conditions: in vivo
[4] = target: T1, Kinesin-like protein KIF23 (Homo sapiens, UniProt Q02241); assay: Inhibition of human recombinant GST-MKLP1 after 20 mins by malachite green assay
T1 sequence (Q02241 whole entry): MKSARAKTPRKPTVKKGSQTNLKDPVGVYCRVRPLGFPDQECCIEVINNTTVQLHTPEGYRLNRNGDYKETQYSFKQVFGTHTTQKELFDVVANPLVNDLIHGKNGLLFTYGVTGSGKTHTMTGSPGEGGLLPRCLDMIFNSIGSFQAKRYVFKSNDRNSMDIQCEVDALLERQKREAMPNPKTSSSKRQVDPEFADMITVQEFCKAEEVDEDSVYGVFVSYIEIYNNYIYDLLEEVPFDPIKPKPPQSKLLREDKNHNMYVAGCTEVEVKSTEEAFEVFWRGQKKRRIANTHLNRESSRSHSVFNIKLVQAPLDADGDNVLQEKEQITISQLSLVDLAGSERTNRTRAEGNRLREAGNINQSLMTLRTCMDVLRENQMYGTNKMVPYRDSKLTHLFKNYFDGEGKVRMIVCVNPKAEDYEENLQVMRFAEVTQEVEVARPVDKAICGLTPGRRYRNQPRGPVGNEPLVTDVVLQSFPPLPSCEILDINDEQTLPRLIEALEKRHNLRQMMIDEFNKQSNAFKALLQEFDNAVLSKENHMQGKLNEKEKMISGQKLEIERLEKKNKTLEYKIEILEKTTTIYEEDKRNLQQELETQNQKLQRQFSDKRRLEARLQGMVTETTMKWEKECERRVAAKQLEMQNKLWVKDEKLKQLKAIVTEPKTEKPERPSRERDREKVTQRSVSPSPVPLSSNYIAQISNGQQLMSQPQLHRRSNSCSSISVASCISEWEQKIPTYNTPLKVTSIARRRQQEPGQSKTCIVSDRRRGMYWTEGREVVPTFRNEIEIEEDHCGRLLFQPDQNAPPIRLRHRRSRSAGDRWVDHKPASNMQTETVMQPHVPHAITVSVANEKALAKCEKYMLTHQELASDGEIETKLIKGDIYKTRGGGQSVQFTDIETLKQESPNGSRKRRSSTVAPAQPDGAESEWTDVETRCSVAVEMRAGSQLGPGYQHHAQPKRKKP

[5] = organism: Rattus norvegicus; assay: Hepatic blood flow in Wistar rat; type: ADME, organism-based, Liver
[6] = Binding affinity to sodium channel in guinea pig atria by radioligand displacement assay; parameters: species or system Cavia porcellus
[7] = target: Cytochrome P450 2C9 (Homo sapiens, UniProt P11712); assay: Inhibition of human recombinant CYP2C9; type: ADME
[8] = target: T2, Kinesin-1 heavy chain (Homo sapiens, UniProt P33176); assay: Inhibition of human GST-conventional kinesin ATPase activity after 20 mins by malachite green assay
T2 sequence (P33176 whole entry): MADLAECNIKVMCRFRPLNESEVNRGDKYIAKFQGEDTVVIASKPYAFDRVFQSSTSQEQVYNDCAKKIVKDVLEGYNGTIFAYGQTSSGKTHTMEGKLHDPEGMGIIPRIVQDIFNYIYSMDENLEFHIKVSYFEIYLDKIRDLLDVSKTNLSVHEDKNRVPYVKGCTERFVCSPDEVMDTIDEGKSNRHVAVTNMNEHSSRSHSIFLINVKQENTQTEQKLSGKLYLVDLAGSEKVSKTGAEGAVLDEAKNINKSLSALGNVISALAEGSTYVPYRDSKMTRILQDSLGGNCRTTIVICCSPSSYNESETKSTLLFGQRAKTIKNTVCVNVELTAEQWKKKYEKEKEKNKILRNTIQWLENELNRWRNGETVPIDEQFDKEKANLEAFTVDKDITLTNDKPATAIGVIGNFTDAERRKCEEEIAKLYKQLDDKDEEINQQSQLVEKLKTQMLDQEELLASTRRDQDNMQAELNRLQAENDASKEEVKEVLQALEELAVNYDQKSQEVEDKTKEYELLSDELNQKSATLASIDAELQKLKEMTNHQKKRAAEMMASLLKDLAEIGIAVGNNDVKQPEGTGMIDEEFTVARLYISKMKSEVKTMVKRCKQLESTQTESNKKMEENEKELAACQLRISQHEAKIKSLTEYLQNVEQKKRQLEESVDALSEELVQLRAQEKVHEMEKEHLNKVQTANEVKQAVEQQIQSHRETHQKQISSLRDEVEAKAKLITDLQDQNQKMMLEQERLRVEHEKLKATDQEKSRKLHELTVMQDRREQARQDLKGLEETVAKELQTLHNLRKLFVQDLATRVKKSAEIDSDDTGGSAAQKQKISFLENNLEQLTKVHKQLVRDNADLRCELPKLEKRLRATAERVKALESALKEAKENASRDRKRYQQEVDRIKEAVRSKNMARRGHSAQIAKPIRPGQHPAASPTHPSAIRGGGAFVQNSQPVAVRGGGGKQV

[9] = Drug level in fiber in Hans Wistar rat hollow fiber model implanted with human COLO205 cells at 6 mg/kg, iv after 24 hrs; type: ADME, organism-based, COLO 205; parameters: dose 6 mg/kg, route intravenous; conditions: read-out: Drug uptake

Chain of Cytochrome P450 2C9 (P11712 whole entry): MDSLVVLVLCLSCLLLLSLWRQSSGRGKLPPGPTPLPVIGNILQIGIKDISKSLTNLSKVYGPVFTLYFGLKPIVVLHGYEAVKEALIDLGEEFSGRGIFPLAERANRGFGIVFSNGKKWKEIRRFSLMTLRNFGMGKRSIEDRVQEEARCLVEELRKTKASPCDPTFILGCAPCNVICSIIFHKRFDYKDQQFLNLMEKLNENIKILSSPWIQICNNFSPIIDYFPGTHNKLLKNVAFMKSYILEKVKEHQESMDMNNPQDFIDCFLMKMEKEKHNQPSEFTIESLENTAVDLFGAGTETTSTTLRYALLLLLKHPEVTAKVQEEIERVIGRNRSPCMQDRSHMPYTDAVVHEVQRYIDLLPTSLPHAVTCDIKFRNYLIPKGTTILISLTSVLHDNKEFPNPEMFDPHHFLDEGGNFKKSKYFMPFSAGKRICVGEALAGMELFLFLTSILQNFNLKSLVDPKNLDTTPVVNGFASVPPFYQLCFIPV

clearance [1]: < 10 µL/min/mg
fraction unbound [2]: 0.044
clearance [3]: 36 mL/min/kg
IC50 [4]: 50 µM
QH [5]: 52%
IC50 [6]: > 30 µM
IC50 [7]: > 10 µM
IC50 [8]: > 100 µM
concentration at 24 h [9]: 30.7 ng/mL
Compound: Cc1ccc(C(=O)N(CCCN)C(c2nc3snc(C)c3c(=O)n2Cc2ccccc2)C(C)C)cc1 (single isomer, unassigned; (+)) [AZD-4877]
